Assay results from ChEMBL document CHEMBL3045539, “Synthesis, DNA affinity, and antimicrobial activity of 4-substituted phenyl-2,2-bichalcophenes and aza-analogues” (Med Chem Res, 2012).
Converted amounts (≈) assume the structure as drawn. The source made the active and inactive calls. The calls are words filed in the database; no cut-off is given here.

Legend:
[1] = test system: Escherichia coli; assay: Induction of Escherichia coli AB1157 DNA degradation after 1 hr by agarose gel electrophoresis
[2] = biological target: Albumin (Bos taurus, UniProt P02769); assay: Induction of Bos taurus (bovine) serum albumin degradation after 1 hr by SDS-PAGE analysis; conditions: cattle
[3] = Antioxidant activity assessed as SOD-like activity measuring inhibition of superoxide radical production at 50 ug after 30 min by NBT reduction assay; assay type: functional
[4] = test system: Saccharomyces cerevisiae; assay: Antimicrobial activity against Saccharomyces cerevisiae after 24 hr by CLSI liquid dilution method; assay type: functional
[5] = test system: Staphylococcus aureus; assay: Antimicrobial activity against Staphylococcus aureus after 24 hr by CLSI liquid dilution method; assay type: functional
[6] = test system: Pseudomonas aeruginosa; assay: Antimicrobial activity against Pseudomonas aeruginosa after 24 hr by CLSI liquid dilution method; assay type: functional
[7] = test system: Bacillus subtilis; assay: Antimicrobial activity against Bacillus subtilis after 24 hr by CLSI liquid dilution method; assay type: functional
[8] = test system: Escherichia coli; assay: Antimicrobial activity against Escherichia coli after 24 hr by CLSI liquid dilution method; assay type: functional
[9] = test system: Saccharomyces cerevisiae; assay: Antimicrobial activity against Saccharomyces cerevisiae at 100 ug after 24 hr by cup diffusion technique; assay type: functional; conditions: read-out: DIZ
[10] = test system: Staphylococcus aureus; assay: Antimicrobial activity against Staphylococcus aureus at 100 ug after 24 hr by cup diffusion technique; assay type: functional; conditions: read-out: DIZ
[11] = test system: Pseudomonas aeruginosa; assay: Antimicrobial activity against Pseudomonas aeruginosa after 24 hr by cup diffusion technique; assay type: functional
[12] = test system: Bacillus subtilis; assay: Antimicrobial activity against Bacillus subtilis at 100 ug after 24 hr by cup diffusion technique; assay type: functional; conditions: read-out: DIZ
[13] = test system: Escherichia coli; assay: Antimicrobial activity against Escherichia coli at 100 ug after 24 hr by cup diffusion technique; assay type: functional; conditions: read-out: DIZ
[14] = Antioxidant activity assessed as DPPH scavenging activity at 50 ug after 30 min by spectrophotometry; assay type: functional

Albumin, sequence (P02769 whole entry): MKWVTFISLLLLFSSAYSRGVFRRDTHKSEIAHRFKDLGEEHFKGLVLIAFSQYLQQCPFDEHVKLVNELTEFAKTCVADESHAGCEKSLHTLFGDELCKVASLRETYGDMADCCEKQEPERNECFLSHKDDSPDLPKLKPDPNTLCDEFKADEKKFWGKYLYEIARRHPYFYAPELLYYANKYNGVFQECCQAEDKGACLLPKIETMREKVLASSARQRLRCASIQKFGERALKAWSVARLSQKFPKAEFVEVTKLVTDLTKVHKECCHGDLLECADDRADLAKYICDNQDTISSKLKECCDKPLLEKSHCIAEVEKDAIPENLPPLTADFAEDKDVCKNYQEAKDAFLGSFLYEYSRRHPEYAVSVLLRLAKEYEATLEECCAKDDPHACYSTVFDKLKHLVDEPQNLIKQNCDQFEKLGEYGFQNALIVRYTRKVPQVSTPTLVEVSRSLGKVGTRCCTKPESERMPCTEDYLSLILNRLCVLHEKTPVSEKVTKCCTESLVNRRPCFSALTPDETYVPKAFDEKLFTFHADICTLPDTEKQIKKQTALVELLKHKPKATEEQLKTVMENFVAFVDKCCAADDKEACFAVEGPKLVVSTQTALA

Structure (SMILES) | Activity [1] | Activity [2] | inhibition [3] [%] | MIC [4] [µg/mL] | MIC [5] [µg/mL] | MIC [6] [µg/mL] | MIC [7] [µg/mL] | MIC [8] [µg/mL] | zone of inhibition at 100 µg/disc [9] [mm] | zone of inhibition at 100 µg/disc [10] [mm] | diameter of the inhibition zone (DIZ) [11] [mm] | zone of inhibition at 100 µg/disc [12] [mm] | zone of inhibition at 100 µg/disc [13] [mm] | Activity [14] [%]
N#Cc1ccc(-c2ccc(-c3ccco3)o2)cc1 [4-(2,2'-BIFURAN-5-YL)BENZONITRILE] | Active | Active | 42.4 | 2.5 (≈ 10.6 µM) | 2 (≈ 8.5 µM) | 5 (≈ 21.3 µM) | 2.5 (≈ 10.6 µM) | 2.5 (≈ 10.6 µM) | 16 | 18 | 16 | 19 | 18 | –
N=C(N)c1ccc(-c2ccc(-c3ccco3)o2)nc1 [6-(2,2'-BIFURAN-5-YL)NICOTINAMIDINE] | Active | Not Active | 44.6 | 10 (≈ 39.5 µM) | 15 (≈ 59.2 µM) | 15 (≈ 59.2 µM) | 15 (≈ 59.2 µM) | 15 (≈ 59.2 µM) | 12 | 6 | 7 | 7 | 9 | –
N#Cc1ccc(-c2ccc(-c3cccs3)s2)cc1 [4-(2,2'-BITHIOPHEN-5-YL)BENZONITRILE] | Active | Active | 57.8 | 10 (≈ 37.4 µM) | 20 (≈ 74.8 µM) | 10 (≈ 37.4 µM) | 20 (≈ 74.8 µM) | 15 (≈ 56.1 µM) | 13 | 9 | 12 | 12 | 10 | 61.8
CC1(C)S[C@@H]2[C@H](NC(=O)[C@H](N)c3ccccc3)C(=O)N2[C@H]1C(=O)O [AMPICILLIN] | – | – | – | 7.5 (≈ 21.5 µM) | 10 (≈ 28.6 µM) | 15 (≈ 42.9 µM) | 15 (≈ 42.9 µM) | 10 (≈ 28.6 µM) | 17 | 12 | 12 | 18 | 16 | –
N=C(N)c1ccc(-c2ccc(-c3cccs3)o2)cc1 [4-[5-(THIOPHEN-2-YL)FURAN-2-YL]BENZAMIDINE] | – | Active | 53.7 | 7.5 (≈ 27.9 µM) | 10 (≈ 37.3 µM) | 15 (≈ 55.9 µM) | 10 (≈ 37.3 µM) | 15 (≈ 55.9 µM) | 12 | 10 | 9 | 11 | 9 | 57.7
N=C(N)c1ccc(-c2ccc(-c3cccs3)o2)nc1 [6-[5-(THIOPHEN-2-YL)FURAN-2-YL]NICOTINAMIDINE] | Active | Active | 44.2 | 15 (≈ 55.7 µM) | 10 (≈ 37.1 µM) | 20 (≈ 74.3 µM) | 15 (≈ 55.7 µM) | 15 (≈ 55.7 µM) | 10 | 11 | 7 | 5 | 8 | –
N=C(N)c1ccc(-c2ccc(-c3cccs3)s2)cc1 [4-(2,2'-BITHIOPHENE-5-YL)BENZAMIDINE] | Active | Not Active | 48.1 | 10 (≈ 35.2 µM) | 15 (≈ 52.7 µM) | 20 (≈ 70.3 µM) | 15 (≈ 52.7 µM) | 10 (≈ 35.2 µM) | 12 | 8 | 8 | 9 | 11 | 51.9
N#Cc1ccc(-c2ccc(-c3cccs3)s2)nc1 [6-(2,2'-BITHIOPHEN-5-YL)NICOTINONITRILE] | Active | Not Active | 52.9 | 2.5 (≈ 9.32 µM) | 15 (≈ 55.9 µM) | 7.5 (≈ 27.9 µM) | 10 (≈ 37.3 µM) | 15 (≈ 55.9 µM) | 19 | 13 | 15 | 12 | 13 | 55.4
N=C(N)c1ccc(-c2ccc(-c3cccs3)s2)nc1 [6-(2,2'-BITHIOPHENE-5-YL)NICOTINAMIDINE] | Active | Active | 51.4 | 5 (≈ 17.5 µM) | 15 (≈ 52.6 µM) | 15 (≈ 52.6 µM) | 15 (≈ 52.6 µM) | 10 (≈ 35 µM) | 14 | 10 | 9 | 7 | 10 | 58.2
N#Cc1ccc(-c2ccc(-c3ccco3)o2)nc1 [6-(2,2'-BIFURAN-5-YL)NICOTINONITRILE] | Active | Not Active | 34.9 | 2 (≈ 8.47 µM) | 2.5 (≈ 10.6 µM) | 5 (≈ 21.2 µM) | 5 (≈ 21.2 µM) | 7.5 (≈ 31.7 µM) | 20 | 17 | 16 | 16 | 14 | –
N=C(N)c1ccc(-c2ccc(-c3ccco3)o2)cc1 [4-(2,2'-BIFURAN-5-YL)BENZAMIDINE] | Active | Active | 39.7 | 15 (≈ 59.5 µM) | 20 (≈ 79.3 µM) | 15 (≈ 59.5 µM) | 15 (≈ 59.5 µM) | 20 (≈ 79.3 µM) | 11 | 8 | 10 | 9 | 6 | –
N#Cc1ccc(-c2ccc(-c3cccs3)o2)cc1 [4-[5-(THIOPHEN-2-YL)FURAN-2-YL]BENZONITRILE] | Active | Not Active | 46.9 | 10 (≈ 39.8 µM) | 15 (≈ 59.7 µM) | 15 (≈ 59.7 µM) | 10 (≈ 39.8 µM) | 15 (≈ 59.7 µM) | 15 | 12 | 16 | 14 | 12 | 53.1
N#Cc1ccc(-c2ccc(-c3cccs3)o2)nc1 [6-[5-(THIOPHEN-2-YL)FURAN-2-YL]NICOTINONITRILE] | Active | Active | 40.3 | 10 (≈ 39.6 µM) | 15 (≈ 59.5 µM) | 10 (≈ 39.6 µM) | 15 (≈ 59.5 µM) | 10 (≈ 39.6 µM) | 16 | 12 | 16 | 13 | 14 | –
